Experimental data: patent EP4417202A1, “ANTI-CANCER ACTION OF BAG1-SELECTIVE IMIDAZOPYRIDINE COMPOUNDS IN STEROID HORMONE RECEPTOR-POSITIVE BREAST AND PROSTATE CANCER” (Karlsruher Institut für Technologie, priority 2023, dated 2024)

Assays:
p53 = assay: Immunofluorescence assay, cellular localization of p53; type: cell-based; settings: MCF-7 cells, 1 µM
Protocol: For immunofluorescence assay, MCF-7, T47D, 22Rv.1, LAPC-4 and LNCaP cells (10^4 each) were seeded on coverslips in a 24-well plate and the desired treatment applied. After three times washing with PBS, cells were fixed with 4% paraformaldehyde solution for 10 min at room temperature. Next, the cells were washed three times with PBS and permeabilized with 0.5% Triton X-100 for 10 min at room temperature. Following three additional washing steps with PBS, cells were treated with 5% bovine serum albumin (w/v) for 1 h at room temperature and subjected to overnight incubation with the primary antibody p53 (DO1 clone or Sp5, Thermo Fisher Scientific), ERα (F-10, Santa-Cruz) or mortalin (D-9, Santa-Cruz) and then washed three times with PBS followed by incubation with goat anti-mouse IgG, Alexa Fluor™ 488 antibody and/or goat anti-rabbit IgG, Alexa Fluor™ 546 antibody (Thermo Fisher Scientific) for 1 h at room temperature in the dark. All subsequent steps were performed in the dark. Cells were washed 3 times with PBS and stained with 0.1 µg/ml DAPI (Thermo Fisher Scientific) solution at 1:10,000 (v/v) dilution for 15 min at room temperature. After three times washing with PBS the cells were mounted in Mowiol® 4-88 on microscope slides and observed by laser-scanning confocal microscopy (Confocal Microscope platform […]6-LSM900, […], Germany).

BAG1 [1] = target: T1, BAG1 (Homo sapiens, UniProt Q99933); assay: Cellular thermal shift assay (Tagg-CETSA) in MCF-7 cells; type: binding; settings: 1 µM, 1 h
T1 construct: endogenous in cells; host or cells: MCF-7
T1 sequence (Q99933 116-345): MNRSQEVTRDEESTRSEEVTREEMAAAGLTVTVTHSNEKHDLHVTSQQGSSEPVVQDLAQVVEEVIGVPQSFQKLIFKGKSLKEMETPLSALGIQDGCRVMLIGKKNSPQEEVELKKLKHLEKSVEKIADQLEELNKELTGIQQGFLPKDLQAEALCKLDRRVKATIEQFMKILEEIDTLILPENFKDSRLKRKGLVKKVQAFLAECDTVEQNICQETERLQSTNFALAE
Protocol: (§1) To determine the aggregation temperature (Tagg-CETSA), MCF-7 cells were harvested and resuspended at a concentration of 2×10^6 cells/ml. X15695 (1 µM) or the same volume of DMSO were added to the cell suspension and incubated for 1 h at 37°C. Cells were washed and resuspend with phosphate-buffered saline (PBS) to a final concentration of 3×10^7 cells/ml. The cell suspension was evenly distributed into different tubes and treated with a gradient of temperature ranging from 37 to 62°C for 3 min. Cells were incubated 3 min at room temperature to ensure a uniform temperature between different tubes and then snap frozen with liquid nitrogen. Cells were lysed by freeze/thaw cycles with liquid nitrogen and centrifuged at 20,000 g for 20 min. Stable BAG proteins present in the supernatant were quantified by Western blotting using an anti-BAG1, 2, 3, and 5 antibodies and β-actin antibody for loading control.

BAG1L = target: T2, BAG1L (Homo sapiens, UniProt Q99933); assay: as above; type: binding; settings: 1 µM, 1 h
T2 construct: endogenous in cells; host or cells: MCF-7
T2 sequence (Q99933 whole entry): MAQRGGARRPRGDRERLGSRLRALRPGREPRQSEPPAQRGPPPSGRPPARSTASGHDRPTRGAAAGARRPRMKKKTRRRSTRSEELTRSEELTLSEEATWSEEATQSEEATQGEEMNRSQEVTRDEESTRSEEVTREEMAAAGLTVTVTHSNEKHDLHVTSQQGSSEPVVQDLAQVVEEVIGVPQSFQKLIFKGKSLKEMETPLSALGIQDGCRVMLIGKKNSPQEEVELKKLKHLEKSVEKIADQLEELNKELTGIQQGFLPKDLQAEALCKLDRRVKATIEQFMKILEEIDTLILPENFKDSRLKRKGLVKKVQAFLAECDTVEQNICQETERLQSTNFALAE
Protocol: as §1

BAG1M = target: T3, BAG1M (Homo sapiens, UniProt Q99933); assay: as above; type: binding; settings: 1 µM, 1 h
T3 construct: endogenous in cells; host or cells: MCF-7
T3 sequence (Q99933 72-345): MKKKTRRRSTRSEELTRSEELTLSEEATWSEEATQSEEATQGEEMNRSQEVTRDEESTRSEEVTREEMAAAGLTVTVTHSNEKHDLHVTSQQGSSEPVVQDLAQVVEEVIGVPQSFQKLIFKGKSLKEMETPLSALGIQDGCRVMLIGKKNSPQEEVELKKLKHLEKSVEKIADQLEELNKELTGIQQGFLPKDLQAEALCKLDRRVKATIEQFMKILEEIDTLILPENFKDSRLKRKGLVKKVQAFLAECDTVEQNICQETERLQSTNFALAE
Protocol: as §1

MCF-7 tumors = assay: Mouse xenograft experiment, MCF-7; type: in vivo; settings: MCF-7 xenograft
Protocol: MCF-7 and LAPC-4 cells (2×10^6) were suspended in 100 µl PBS: Matrigel (Corning NY USA, 1:1) and injected subcutaneously into both flanks of 6-7 weeks old female (for MCF-7 cells) and male (for LAPC-4 cells) athymic nude-Foxn1^nu mice (Envigo RMS GmbH, Düsseldorf, Germany). When tumor volumes were around 50 to100 mm^3, mice were randomized into four groups (7 mice per group) and treated daily by oral gavage as follows: (1) Control group (Vehicle) (corn oil, 1.0% dimethyl sulfoxide (DMSO) and (2) X15695 group, 30 mg per kg body weight) for the MCF-7 tumors or (1) Control group (Vehicle) (corn oil, 1.0% dimethyl sulfoxide (DMSO) (2) enzalutamide (Enza group, 15 mg per kg body weight), (3) X15695 group, 30 mg per kg body weight) and, (4) X15695 group (15 mg per kg body weight) for the LAPC-4 tumors. Body weight and tumor volumes were measured twice a week. Tumor volume was measured with a digital vernier caliper and calculated using the formula vol = length × width × height × 0.5236 and recorded or calculated relative to the starting volume which was nominally set at 100%. After 16 days for the MCF-7 tumors or 42 days for the LAPC-4 tumors, mice were sacrificed and the tumors removed, photographed, and weighed. Percent body weight change was calculated using the following formula: group percent weight change = [(new weight - initial weight)/initial weight] × 100]. Tumors were snap-frozen and stored for Western blot analysis.

BAG1 [2] = assay: Western blot of BAG1 level in breast cancer cells; type: cell-based; settings: MCF-7 and T47D cells, 48 h
Protocol: For Western blotting, cells were lysed in NP-40 lysis buffer (1% NP-40, 50 mM Tris-HCl, pH 8.0, 150 mM NaCl, 5 mM EDTA) or 1× passive lysis buffer (Promega, Germany) for 15 min on ice. Cell debris was removed by centrifugation at 13,000 rpm for 10 min and used for SDS-polyacrylamide gel electrophoresis (PAGE) and Western blotting.
Western Blotting was carried out using standard protocols with antibodies: p53 (clone DO1), p53 (Sp5, Thermo Fisher Scientific Karlsruhe, Germany), Mdm2 (4B2, Abcam, Cambridge, UK). […] Secondary goat anti-mouse and goat anti-rabbit antibodies were purchased from DAKO (Bollschweil, Germany).

BAG2 with mutant p53 = target: T4, BAG2 with mutant p53 (Homo sapiens, UniProt O95816); assay: Co-immunoprecipitation in T47D cells; type: cell-based; settings: 1 µM, 48 h
T4 construct: endogenous in cells; host or cells: T47D
T4 sequence (O95816 whole entry, stated change not applied): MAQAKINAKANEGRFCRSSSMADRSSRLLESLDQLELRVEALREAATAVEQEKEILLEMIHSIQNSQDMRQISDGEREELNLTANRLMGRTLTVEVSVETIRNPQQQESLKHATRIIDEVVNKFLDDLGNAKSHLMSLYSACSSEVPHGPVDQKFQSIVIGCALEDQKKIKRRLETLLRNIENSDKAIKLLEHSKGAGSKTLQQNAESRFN
Protocol: (§2) Cells were harvested, washed with PBS, and lysed using NP-40 lysis buffer. Protein A agarose beads (Thermo Fisher Scientific) were mixed with protein G agarose beads (Thermo Fisher Scientific) (4:1) and preincubated overnight at 4°C with anti-p53 or anti-BAG1 or control IgG antibody. Cellular extracts from X15695 treated and untreated cells (1,000 µg) were incubated with antibody-preincubated protein A/G agarose beads for 3 to 4 h at room temperature. The beads with immunoprecipitated proteins were collected at 4°C by centrifugation at 1,000 g for 5 min and washed 4 to 5 times with NP-40 lysis buffer. The immunoprecipitated proteins were eluted by heating in SDS sample buffer for 5 min at 95°C and resolved on SDS-PAGE. Thereafter, they were subjected to Western blot analysis to detect mortalin, BAG1, BAG2, BAG5 and p53. Cellular extracts containing 50 to 70 µg protein from X15695 treated and untreated cells were used as the input control for the targeted proteins.

BAG5 with mutant p53 = target: T5, BAG5 with mutant p53 (Homo sapiens, UniProt Q9UL15); assay: Co-immunoprecipitation in T47D cells; type: cell-based; settings: 1 µM, 48 h
T5 construct: endogenous in cells; host or cells: T47D
T5 sequence (Q9UL15 whole entry, stated change not applied): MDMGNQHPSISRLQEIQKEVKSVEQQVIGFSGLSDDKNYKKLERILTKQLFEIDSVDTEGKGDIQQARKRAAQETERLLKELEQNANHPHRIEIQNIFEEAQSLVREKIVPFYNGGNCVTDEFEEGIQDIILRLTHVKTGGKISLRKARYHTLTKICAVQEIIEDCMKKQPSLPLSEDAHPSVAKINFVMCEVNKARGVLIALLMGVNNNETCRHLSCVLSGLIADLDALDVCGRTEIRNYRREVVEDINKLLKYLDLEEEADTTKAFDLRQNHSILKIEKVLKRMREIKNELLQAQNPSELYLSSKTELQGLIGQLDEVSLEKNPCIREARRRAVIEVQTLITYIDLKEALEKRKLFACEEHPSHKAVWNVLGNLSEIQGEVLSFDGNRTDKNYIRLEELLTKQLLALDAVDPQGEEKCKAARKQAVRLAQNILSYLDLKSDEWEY
Protocol: as §2

MCF-7 and T47D cells = assay: Apoptosis assessment, 7-AAD and Annexin V double staining; type: cell-based; settings: 1 µM, 48 h
Protocol: Induction of apoptosis in response to treatment with X15695 was analyzed in MCF-7 and T47D cells using PE Annexin V Apoptosis Detection Kit with 7-AAD (BD Bioscience, San Diego, CA, USA) according to the manufacturer's protocol. In short, cells were harvested by trypsinization, and single cell suspensions (1×10^6 cells) were prepared as described above in 100 µl PBS. Cells were stained with 5 µl PE Annexin V and 5 µl 7-AAD for 15 min at room temperature in the dark. Subsequently, 400 µl PBS were added to each sample and flow cytometry measurements were performed within one hour. Cells stained with PE Annexin V or 7-AAD alone were used for compensation. Flow cytometry analysis was performed using BD FACSAria (BD Biosciences, Franklin Lakes, NJ, USA). Flow cytometry data were analyzed using FlowJo 10.8.1 cytometry analysis software (FlowJo, LLC).

[3] = 30 mg/kg body weight per os daily
[4] = Western blot after the treatment period

`Fc1ccc(-c2cn3cc(C(F)(F)F)cc(Cl)c3n2)cc1` [Compound X15695, 8-Chloro-2-(4-fluorophenyl)-6-(trifluoromethyl)imidazo[1,2-a]pyridine] was tested, and the “cellular localization of p53” value (p53) was “accumulated in the nucleus as early as 8 h after X15695 treatment”, the “increase of aggregation temperature (Tagg) over vehicle” value (from here on “increase of aggregation temperature”) (BAG1 [1]) was 3 °C and the “increase of aggregation temperature” value (BAG1L) was 1-2 °C. The “increase of aggregation temperature” value (BAG1M) was 1-2 °C, the tumor volume (MCF-7 tumors; [3]) was “significant decrease” and the tumor weight (MCF-7 tumors; [3]) was “significant decrease”. For the same compound, the “tolerability, body weight” value (MCF-7 tumors; 30 mg/kg body weight per os daily, 16 days) was “well tolerated and did not cause any weight loss or other signs of host toxicity”, the “ERα level in tumor lysates” value (MCF-7 tumors; [4]) was “significant decrease in ERα level” and the “p53 expression in tumor lysates” value (MCF-7 tumors; [4]) was “increase in p53 expression”. The “level of the BAG1 proteins” value (BAG1 [2]) was “dose-dependent decrease in the level of the BAG1 proteins”, the “interaction of BAG2 with mutant p53” value (BAG2 with mutant p53) was “disrupts the interaction of BAG2” and the “interaction of BAG5 with mutant p53” value (BAG5 with mutant p53) was “not BAG5”. For the same compound, the apoptosis (MCF-7 and T47D cells) was “increased number of the cells in the late stage of apoptosis”.
